The structures appear in SMILES notation.

For 19 molecules, EC50 results are on record in patent US8796256B2 (Janssen Pharmaceutica NV, priority 2010, dated 2014).

This test concerns the target T1, ERR1 (also known as ERR-α or ERR-1) (Homo sapiens, UniProt P11474).
T1 sequence (P11474 193-421 limits assumed): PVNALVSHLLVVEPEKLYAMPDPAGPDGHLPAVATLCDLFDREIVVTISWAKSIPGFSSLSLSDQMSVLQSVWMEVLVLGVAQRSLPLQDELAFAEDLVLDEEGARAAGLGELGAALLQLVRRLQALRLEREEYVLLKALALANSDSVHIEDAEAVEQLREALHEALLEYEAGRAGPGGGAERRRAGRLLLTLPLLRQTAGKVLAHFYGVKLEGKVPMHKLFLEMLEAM
The experiment in a line: TR-FRET assay (disruption of co-activator peptide binding to ERR1 LBD). The format is biochemical. Conditions: 6 nM 6His-ERR1LBD, 6 nM GST-SRC-2 peptide; average of 3 independent experiments. The gist of the method:
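His-tagged ERR1 ligand-binding domain and GST-labelled SRC-2 peptide, each 6 nM, equilibrated at 25° C for 4-18 h in Tris pH 8/Hepes/KCl/DTT/delipidated BSA buffer. Compound-induced loss of co-activator binding read as Eu cryptate→XL665 energy transfer; values from hyperbolic curve fits averaged over 3 independent runs.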
In general terms: TR-FRET usually uses a lanthanide donor and a delayed reading to cut background.
For orientation: EC50 means the concentration giving half of the maximal effect. For the molecule `COc1ccc(Cn2ncc3cc(/C=C4\SC(=O)N(CCN5CCCCC5)C4=O)ccc32)c(C(F)(F)F)c1` [Compound 11, (5Z)-5-[(1-{[4-(Methyloxy)-2-(trifluoromethyl)phenyl]methyl}-1H-indazol-5-yl)methylidene]-3-(2-piperidin-1-ylethyl)-1,3-thiazolidine-2,4-dione], the EC50 was found to be 27 nM. Then `CS(=O)(=O)NN1C(=O)S/C(=C\c2cc3cnn(Cc4ccc(Cl)cc4C(F)(F)F)c3cc2F)C1=O` [Compound 371, N-[(5Z)-5-({1-[4-Chloro-2-(trifluoromethyl)benzyl]-6-fluoro-1H-indazol-5-yl}methylidene)-2,4-dioxo-1,3-thiazolidin-3-yl]methanesulfonamide], with 9 nM; and `COc1ccc(Cn2ncc3cc(/C=C4\SC(=O)N(CCN(C)C)C4=O)ccc32)c(C(F)(F)F)c1` [Compound 9, (5Z)-3-[2-(Dimethylamino)ethyl]-5-[(1-{[4-(methyloxy)-2-(trifluoromethyl)phenyl]-methyl}-1H-indazol-5-yl)methylidene]-1,3-thiazolidine-2,4-dione], with 4 nM. Then `O=C1S/C(=C\c2ccc3c(cnn3Cc3ccc(Cl)cc3C(F)(F)F)c2)C(=O)N1C1(C(=O)O)CC1` [Compound 89, 1-[(5Z)-5-({1-[4-Chloro-2-(trifluoromethyl)benzyl]-1H-indazol-5-yl}methylidene)-2,4-dioxo-1,3-thiazolidin-3-yl]cyclopropanecarboxylic acid], with 92 nM. Regarding `COc1ccc(Cn2ncc3cc(/C=C4\SC(=O)N(CCN5C[C@@H](C)O[C@@H](C)C5)C4=O)ccc32)c(C(F)(F)F)c1` [Compound 21, (5Z)-3-{2-[cis-2,6-Dimethylmorpholin-4-yl]ethyl}-5-({1-[4-methoxy-2-(trifluoromethyl)benzyl]-1H-indazol-5-yl)methylidene)-1,3-thiazolidine-2,4-dione], it took 9 nM to reach a half-maximal effect (EC50). `Cn1cnc(CC(C(=O)O)N2C(=O)S/C(=C\c3ccc4c(cnn4Cc4ccc(Cl)cc4C(F)(F)F)c3)C2=O)c1` (stereo not shown) [Compound 223, 2-[(5Z)-5-({1-[4-Chloro-2-(trifluoromethyl)benzyl]-1H-indazol-5-yl}methylidene)-2,4-dioxo-1,3-thiazolidin-3-yl]-3-(1-methyl-1H-imidazol-4-yl)propanoicacid] showed an EC50 of 55 nM. Under `COc1ccc(Cn2nc(OC)c3cc(/C=C4\SC(=O)N(CCN5CCOCC5)C4=O)ccc32)c(C(F)(F)F)c1` [Compound 25, (5Z)-5-({3-Methoxy-1-[4-methoxy-2-(trifluoromethyl)benzyl]-1H-indazol-5-yl}methylidene)-3-(2-morpholin-4-ylethyl)-1,3-thiazolidine-2,4-dione] stands 16 nM. On to `CN(C)CCCN1C(=O)S/C(=C\c2ccc3c(ccn3Cc3ccc(F)cc3C(F)(F)F)c2)C1=O` [Compound 252, (5Z)-3-[3-(Dimethylamino)propyl]-5-[(1-{[4-fluoro-2-(trifluoromethyl)phenyl]methyl}-1H-indol-5-yl)methylidene]-1,3-thiazolidine-2,4-dione], for which the EC50 turned out to be 100 nM. In turn, `O=C(O)/C=C/CN1C(=O)S/C(=C\c2ccc3c(cnn3Cc3ccc(Cl)cc3C(F)(F)F)c2)C1=O` [Compound 376, (2E)-4-[(5Z)-5-({1-[4-Chloro-2-(trifluoromethyl)benzyl]-1H-indazol-5-yl}methylidene)-2,4-dioxo-1,3-thiazolidin-3-yl]but-2-enoic acid] gave an EC50 of 65 nM. Then `CN1CCO[C@H](CN2C(=O)S/C(=C\c3ccc4c(cnn4Cc4ccc(Cl)cc4C(F)(F)F)c3)C2=O)C1` [Compound 192, (5Z)-5-({1-[4-Chloro-2-(trifluoromethyl)benzyl]-1H-indazol-5-yl}methylidene)-3-{[(2S)-4-methylmorpholin-2-yl]methyl}-1,3-thiazolidine-2,4-dione], with 45 nM. `O=C(CN1C(=O)S/C(=C\c2ccc3c(c2)nnn3Cc2ccc(Cl)cc2C(F)(F)F)C1=O)NS(=O)(=O)N1CCCC1` [Compound 268, 2-[(5Z)-5-({1-[4-Chloro-2-(trifluoromethyl)benzyl]-1H-benzotriazol-5-yl}methylidene)-2,4-dioxo-1,3-thiazolidin-3-yl]-N-(pyrrolidin-1-ylsulfonyl)acetamide] gave an EC50 of 46 nM. Then `CS(=O)(=O)NC(=O)CN1C(=O)S/C(=C\c2ccc3c(cnn3Cc3ccc(F)cc3C(F)(F)F)c2)C1=O` [Compound 185, 2-[(5Z)-5-({1-[4-Fluoro-2-(trifluoromethyl)benzyl]-1H-indazol-5-yl}methylidene)-2,4-dioxo-1,3-thiazolidin-3-yl]-N-(methylsulfonyl)acetamide], with 277 nM; and `CCN1C[C@@H](F)[C@H](N2C(=O)S/C(=C\c3ccc4c(cnn4Cc4ccc(Cl)cc4C(F)(F)F)c3)C2=O)C1` (relative stereo) [Compound 320, (5Z)-5-({1-[4-Chloro-2-(trifluoromethyl)benzyl]-1H-indazol-5-yl}methylidene)-3-[trans-1-ethyl-4-fluoropyrrolidin-3-yl]-1,3-thiazolidine-2,4-dione], with 31 nM; and `NS(=O)(=O)NC(=O)CN1C(=O)S/C(=C\c2ccc3c(cnn3Cc3ccc(C(F)(F)F)cc3C(F)(F)F)c2)C1=O` [Compound 87, 2-[(5Z)-5-({1-[2,4-Bis(trifluoromethyl)benzyl]-1H-indazol-5-yl}methylidene)-2,4-dioxo-1,3-thiazolidin-3-yl]-N-sulfamoylacetamide], with 650 nM. `CN(C)CCN1C(=O)S/C(=C\c2ccc3c(ccn3Cc3ccc(Cl)cc3C(F)(F)F)c2)C1=O` [Compound 243, (5Z)-5-[(1-{[4-Chloro-2-(trifluoromethyl)phenyl]methyl}-1H-indol-5-yl)methylidene]-3-[2-(dimethylamino)ethyl]-1,3-thiazolidine-2,4-dione]: a half-maximal effect (EC50) was put at 50 nM. Under `NC(=O)CN1CCN(N2C(=O)S/C(=C\c3ccc4c(cnn4Cc4ccc(Cl)cc4C(F)(F)F)c3)C2=O)CC1` [Compound 353, 2-{4-[(5Z)-5-({1-[4-Chloro-2-(trifluoromethyl)benzyl]-1H-indazol-5-yl}methylidene)-2,4-dioxo-1,3-thiazolidin-3-yl]piperazin-1-yl}acetamide] stands 11 nM; under `O=C1S/C(=C\c2ccc3c(cnn3Cc3ccc(Cl)cc3C(F)(F)F)c2)C(=O)N1C[C@@H](O)CN1CCCC1` [Compound 292, (5Z)-5-({1-[4-Chloro-2-(trifluoromethyl)benzyl]-1H-indazol-5-yl}methylidene)-3-[(2S)-2-hydroxy-3-pyrrolidin-1-ylpropyl]-1,3-thiazolidine-2,4-dione], 49 nM; under `CS(=O)(=O)NN1C(=O)S/C(=C\c2ccc3c(cnn3Cc3ccc(Cl)cc3C(F)(F)F)c2F)C1=O` [Compound 370, N-[(5Z)-5-({1-[4-Chloro-2-(trifluoromethyl)benzyl]-4-fluoro-1H-indazol-5-yl}methylidene)-2,4-dioxo-1,3-thiazolidin-3-yl]methanesulfonamide], 48 nM.

Regarding `O=C(O)[C@H](CO)N1C(=O)S/C(=C\c2ccc3c(cnn3Cc3ccc(Cl)cc3C(F)(F)F)c2)C1=O` [Compound 221, (2S)-2-[(5Z)-5-({1-[4-Chloro-2-(trifluoromethyl)benzyl]-1H-indazol-5-yl}methylidene)-2,4-dioxo-1,3-thiazolidin-3-yl]-3-hydroxypropanoic acid], the EC50 came out at 61 nM.
